Measured values published in the NIST ThermoML archive (doi:10.1016/j.jct.2015.06.005).
± gives the expanded uncertainty stated by the source.

Columns and labels:
[1] = xn = mol fraction of the nth substance listed; conditions: 100 kPa, Liquid; for speed of sound: Frequency=3 MHz, Sing-around technique in a fixed-path interferometer; for mass density: Vibrating tube method
[2] = refractive index (Na D-line) (dimensionless); xn = mol fraction of the nth substance listed; conditions: 100 kPa, Liquid, Standard Abbe refractometry

CCCCCCCCN1CCCC1=O [N-octyl-2-pyrrolidone] + CCCCn1cc[n+](C)c1.F[B-](F)(F)F
Conditions	mass density, [1] [kg/m3]	refractive index, [2]	speed of sound, [1] [m/s]
298.15 K, x2 = 0	918.45 ± 1	1.46346 ± 0.00086	1450.2 ± 6.1
298.15 K, x2 = 0.1084	945.54 ± 1	1.46095 ± 0.00086	1454.9 ± 6.1
298.15 K, x2 = 0.196	965.52 ± 1	1.45803 ± 0.00087	1457.4 ± 6.1
298.15 K, x2 = 0.3023	991.51 ± 1	1.45399 ± 0.00087	1461.3 ± 6.1
298.15 K, x2 = 0.4087	1020.1 ± 1	1.44986 ± 0.00087	1467.5 ± 6.1
298.15 K, x2 = 0.5064	1045.47 ± 1	1.44556 ± 0.00087	1474 ± 6.1
298.15 K, x2 = 0.6027	1074.31 ± 1	1.44155 ± 0.00087	1485.8 ± 6.1
298.15 K, x2 = 0.6981	1103.56 ± 1	1.43713 ± 0.00087	1499.9 ± 6.1
298.15 K, x2 = 0.7966	1133.07 ± 1	1.43209 ± 0.00087	1517.6 ± 6.1
298.15 K, x2 = 0.8978	1164.87 ± 1.1	1.42695 ± 0.00087	1539.8 ± 6.1
303.15 K, x2 = 0	914.8 ± 1	1.46152 ± 0.00086	1432.6 ± 6.1
303.15 K, x2 = 0.1084	941.91 ± 1	1.45882 ± 0.00086	1438.3 ± 6.1
303.15 K, x2 = 0.196	961.89 ± 1	1.45622 ± 0.00087	1441.3 ± 6.1
303.15 K, x2 = 0.3023	987.89 ± 1	1.45226 ± 0.00087	1445.3 ± 6.1
303.15 K, x2 = 0.4087	1016.54 ± 1	1.4482 ± 0.00087	1452.1 ± 6.1
303.15 K, x2 = 0.5064	1041.86 ± 1	1.44392 ± 0.00087	1459.2 ± 6.1
303.15 K, x2 = 0.6027	1070.71 ± 1	1.43996 ± 0.00087	1471.7 ± 6.1
303.15 K, x2 = 0.6981	1099.98 ± 1	1.43564 ± 0.00087	1486 ± 6.1
303.15 K, x2 = 0.7966	1129.48 ± 1	1.4307 ± 0.00087	1504.5 ± 6.1
303.15 K, x2 = 0.8978	1161.29 ± 1.1	1.42526 ± 0.00087	1527.3 ± 6.1
308.15 K, x2 = 0	911.14 ± 1	1.45955 ± 0.00086	1415.3 ± 6.1
308.15 K, x2 = 0.1084	938.28 ± 1	1.45675 ± 0.00086	1421.6 ± 6.1
308.15 K, x2 = 0.196	958.26 ± 1	1.45433 ± 0.00087	1424.9 ± 6.1
308.15 K, x2 = 0.3023	984.27 ± 1	1.45051 ± 0.00087	1429.4 ± 6.1
308.15 K, x2 = 0.4087	1012.96 ± 1	1.44653 ± 0.00087	1436.8 ± 6.1
308.15 K, x2 = 0.5064	1038.25 ± 1	1.4423 ± 0.00087	1444.4 ± 6.1
308.15 K, x2 = 0.6027	1067.16 ± 1	1.43842 ± 0.00087	1457.4 ± 6.1
308.15 K, x2 = 0.6981	1096.42 ± 1	1.43416 ± 0.00087	1472.3 ± 6.1
308.15 K, x2 = 0.7966	1125.91 ± 1	1.42923 ± 0.00087	1491.4 ± 6.1
308.15 K, x2 = 0.8978	1157.71 ± 1.1	1.42379 ± 0.00087	1514.9 ± 6.1
313.15 K, x2 = 0	907.49 ± 1	1.45761 ± 0.00086	1398 ± 6.1
313.15 K, x2 = 0.1084	934.64 ± 1	1.45482 ± 0.00086	1405 ± 6.1
313.15 K, x2 = 0.196	954.63 ± 1	1.45243 ± 0.00087	1408.7 ± 6.1
313.15 K, x2 = 0.3023	980.66 ± 1	1.44871 ± 0.00087	1413.7 ± 6.1
313.15 K, x2 = 0.4087	1009.39 ± 1	1.44484 ± 0.00087	1421.6 ± 6.1
313.15 K, x2 = 0.5064	1034.65 ± 1	1.44059 ± 0.00087	1429.7 ± 6.1
313.15 K, x2 = 0.6027	1063.63 ± 1	1.43681 ± 0.00087	1443.3 ± 6.1
313.15 K, x2 = 0.6981	1092.9 ± 1	1.43266 ± 0.00087	1458.8 ± 6.1
313.15 K, x2 = 0.7966	1122.36 ± 1	1.42777 ± 0.00087	1478.6 ± 6.1
313.15 K, x2 = 0.8978	1154.16 ± 1.1	1.4223 ± 0.00087	1502.7 ± 6.1
318.15 K, x2 = 0	903.83 ± 1	1.45564 ± 0.00086	1380.9 ± 6.1
318.15 K, x2 = 0.1084	931.01 ± 1	1.45292 ± 0.00086	1388.6 ± 6.1
318.15 K, x2 = 0.196	951.01 ± 1	1.45054 ± 0.00087	1392.7 ± 6.1
318.15 K, x2 = 0.3023	977.05 ± 1	1.44692 ± 0.00087	1398.2 ± 6.1
318.15 K, x2 = 0.4087	1005.86 ± 1	1.44312 ± 0.00087	1406.6 ± 6.1
318.15 K, x2 = 0.5064	1031.07 ± 1	1.43894 ± 0.00087	1415.2 ± 6.1
318.15 K, x2 = 0.6027	1060.13 ± 1	1.43513 ± 0.00087	1429.4 ± 6.1
318.15 K, x2 = 0.6981	1089.38 ± 1	1.43111 ± 0.00087	1445.5 ± 6.1
318.15 K, x2 = 0.7966	1118.83 ± 1	1.4263 ± 0.00087	1465.9 ± 6.1
318.15 K, x2 = 0.8978	1150.62 ± 1.1	1.4208 ± 0.00087	1490.6 ± 6.1
323.15 K, x2 = 0	900.17 ± 1	1.45367 ± 0.00086	1364 ± 6.1
323.15 K, x2 = 0.1084	927.39 ± 1	1.45088 ± 0.00086	1372.3 ± 6.1
323.15 K, x2 = 0.196	947.4 ± 1	1.44862 ± 0.00087	1376.7 ± 6.1
323.15 K, x2 = 0.3023	973.44 ± 1	1.44512 ± 0.00087	1382.7 ± 6.1
323.15 K, x2 = 0.4087	1002.29 ± 1	1.44146 ± 0.00087	1391.8 ± 6.1
323.15 K, x2 = 0.5064	1027.48 ± 1	1.43731 ± 0.00087	1400.8 ± 6.1
323.15 K, x2 = 0.6027	1056.67 ± 1	1.43346 ± 0.00087	1415.6 ± 6.1
323.15 K, x2 = 0.6981	1085.86 ± 1	1.42954 ± 0.00087	1432.2 ± 6.1
323.15 K, x2 = 0.7966	1115.32 ± 1	1.42478 ± 0.00087	1453.3 ± 6.1
323.15 K, x2 = 0.8978	1147.1 ± 1.1	1.41935 ± 0.00087	1478.6 ± 6.1
